Key:
Crabgrass = assay: Postemergent injury rating, crabgrass; format: in vivo, large crabgrass; set-up: key: injury rating scale, 4 = death; details: 8 lbs/acre
Description: (§1) Various of the compounds to be employed as active agent in accordance with the present invention were evaluated for preemergent application to various species of plants. In this evaluation, a soil was prepared consisting of one part masonry sand and one part shredded top soil blended together in a cement mixer. One gallon of this soil was placed in a 25 × 35 cm. galvanized flat and was patted down with a bench brush until level. A three-row marker was used to make 21/2 cm. deep furrows in approximately two-fifths of the flat. Crop seeds consisting of four kernels of corn, five cotton seeds and five soybean seeds were placed in these furrows. A four-row template was then placed on the remaining soil and the indicated approximate numbers of each of the following seeds were planted, one species to each section: foxtail (millet), 80-100 seeds; velvetleaf (40-50 seeds); rough pigweed (150-250 seeds); and large crabgrass (100-150 seeds).
(§2) Sufficient soil was added to cover the entire flat. Thus, the weed seeds were covered to a depth of about 6 mm. and the crop seeds were covered to a depth of about 3 cm.
(§3) In assaying the effect of the composition as preemergent herbicides, a flat prepared as above, taken either on the day of planting or on the next day, was placed in a chamber equipped with a turntable and an air exhaust. The herbicidal composition, either a spray-type emulsion or a wettable powder, was applied to the flat with a modified DeVilbiss atomizer hooked to an air source. Twelve and one-half milliliters of the composition under test were applied to each flat either on the day of planting or the succeeding day. Injury ratings and observations as to type of injury were made eleven to twelve days after treatment. The injury rating scale used was as follows:
(§4) 4--death When more than one determination was carried out at a given rate, an average value was calculated for the injury rating. Each compound evaluated was formulated as a spray by one of the following procedures. In one method the particular compound was wetted by grinding in a mortar with one part of polyoxyethylene sorbitan monolaurate. Five hundred parts of water were added slowly to the resultant creamy paste to give an aqueous dispersion with a surfactant concentration of 0.2 percent. This dispersion was entirely satisfactory for spray application. In a second procedure the compound was dissolved in one volume of acetone, and the acetone solution was diluted with nineteen volumes of water containing 0.1 percent of polyoxyethylene sorbitan monolaurate.
(§5) Representative compounds of the present invention were evaluated for postemergent application to plants including corn and several weed species. The evaluation was carried out in accordance with the procedures of Examples 49-52 except that the test solutions were applied about 9-12 days after the preparation and seeding of the flats.

Foxtail = assay: Postemergent injury rating, foxtail; format: in vivo, foxtail (millet); set-up: key: injury rating scale, 4 = death; details: 8 lbs/acre
Description: as §1, §2, §3, §4, §5

Corn [1] = assay: Postemergent injury rating, corn; format: in vivo; set-up: key: injury rating scale, 4 = death; details: 8 lbs/acre
Description: as §1, §2, §3, §4, §5

Pigweed [2] = assay: Postemergent injury rating, pigweed; format: in vivo, rough pigweed; set-up: key: injury rating scale, 4 = death; details: 8 lbs/acre
Description: as §1, §2, §3, §4, §5

Velvet Leaf [3] = assay: Postemergent injury rating, velvetleaf; format: in vivo; details: 8 lbs/acre
Description: as §1, §2, §3, §4, §5

Barnyard Grass = assay: General herbicidal effect alone/in combination, barnyard grass; format: in vivo; set-up: key: 0-10 scale: 0 = no injury, 10 = death; details: alone
Description: as §1, §2, §3, §4
(§6) 6-Chloro-1-hydroxy-2-(trifluoromethyl)-1H-imidazo(4,5-b)pyridine was evaluated in combination with 2-chloro-4-ethylamino-6-isopropylamino-s-triazine and separately in combination with 2-chloro-2',6'-diethyl-N-(methoxymethyl)acetanilide for the control of plants. The evaluations were conducted as described in Examples 49-52, except that the rates of compound differed and the species were different. General herbicidal effect was rated on a scale of 0-10, with 0 = no injury and 10 = death. Observations were also made for the following other specific phytotoxic effects.

Corn [4] = assay: General herbicidal effect alone/in combination, corn (second Corn column); format: in vivo; set-up: key: 0-10 scale: 0 = no injury, 10 = death; details: alone
Description: as §1, §2, §3, §4, §6

Morning glory = assay: General herbicidal effect alone/in combination, morning glory; format: in vivo; set-up: key: 0-10 scale: 0 = no injury, 10 = death; details: alone
Description: as §1, §2, §3, §4, §6

Jimsonweed = assay: General herbicidal effect alone/in combination, jimsonweed; format: in vivo; set-up: key: 0-10 scale: 0 = no injury, 10 = death; details: alone
Description: as §1, §2, §3, §4, §6

Johnson Grass = assay: General herbicidal effect alone/in combination, Johnson grass; format: in vivo; details: alone
Description: as §1, §2, §3, §4, §6

Large Crabgrass = assay: General herbicidal effect alone/in combination, large crabgrass; format: in vivo; set-up: key: 0-10 scale: 0 = no injury, 10 = death; details: alone
Description: as §1, §2, §3, §4, §6

Velvet Leaf [5] = assay: General herbicidal effect alone/in combination, velvetleaf; format: in vivo; set-up: key: 0-10 scale: 0 = no injury, 10 = death; details: alone
Description: as §1, §2, §3, §4, §6

Pigweed [6] = assay: General herbicidal effect alone/in combination, pigweed; format: in vivo; set-up: key: 0-10 scale: 0 = no injury, 10 = death; details: alone
Description: as §1, §2, §3, §4, §6

Sorghum = assay: General herbicidal effect alone/in combination, sorghum; format: in vivo; set-up: key: 0-10 scale: 0 = no injury, 10 = death; details: alone
Description: as §1, §2, §3, §4, §6

Corn [7] = assay: General herbicidal effect alone/in combination, corn (first Corn column); format: in vivo; set-up: key: 0-10 scale: 0 = no injury, 10 = death; details: alone
Description: as §1, §2, §3, §4, §6

Ragweed = assay: General herbicidal effect alone/in combination, ragweed; format: in vivo; set-up: key: 0-10 scale: 0 = no injury, 10 = death; details: alone
Description: as §1, §2, §3, §4, §6

Rice = assay: General herbicidal effect alone/in combination, rice; format: in vivo; set-up: key: 0-10 scale: 0 = no injury, 10 = death; details: alone
Description: as §1, §2, §3, §4, §6

Lambs Quarter = assay: General herbicidal effect alone/in combination, lambsquarter; format: in vivo; set-up: key: 0-10 scale: 0 = no injury, 10 = death; details: alone
Description: as §1, §2, §3, §4, §6

Foxtail Millet = assay: General herbicidal effect alone/in combination, foxtail millet; format: in vivo; set-up: key: 0-10 scale: 0 = no injury, 10 = death; details: alone
Description: as §1, §2, §3, §4, §6

Nc1c(Br)nc2nc(C(F)(F)F)n(O)c2c1Br [5,7-dibromo-6-amino-1-hydroxy-2-(trifluoromethyl)-1H-imidazo(4,5-b)pyridine]
Injury Rating, Crabgrass (Crabgrass): 3
Injury Rating, Foxtail (Foxtail): 3
Injury Rating, Corn (Corn [1]): 1
Injury Rating, Pigweed (Pigweed [2]): 3
Injury Rating, Velvet Leaf (Velvet Leaf [3]): 2

On1c(C(F)(F)F)nc2nc(Br)c(Cl)c(Br)c21 [5,7-dibromo-6-chloro-1-hydroxy-2-(trifluoromethyl)-1H-imidazo(4,5-b)pyridine]
Injury Rating, Crabgrass (Crabgrass): 4
Injury Rating, Foxtail (Foxtail): 4
Injury Rating, Corn (Corn [1]): 1
Injury Rating, Pigweed (Pigweed [2]): 4
Injury Rating, Velvet Leaf (Velvet Leaf [3]): 3

CCNc1nc(Cl)nc(NC(C)C)n1 [B, 2-chloro-4-ethylamino-6-isopropylamino-s-triazine]
herbicidal effect, Barnyard Grass (Barnyard Grass; 0.25 lbs/A): 2S
herbicidal effect, Barnyard Grass (Barnyard Grass; 0.5 lbs/A): 5SB
herbicidal effect, Barnyard Grass (Barnyard Grass; 1.0 lbs/A): 4SB
herbicidal effect, Barnyard Grass (Barnyard Grass; 2.0 lbs/A): 8BS
herbicidal effect, Corn (Corn [4]; 0.25 lbs/A): 0
herbicidal effect, Corn (Corn [4]; 0.5 lbs/A): 0
herbicidal effect, Corn (Corn [4]; 1.0 lbs/A): 0
herbicidal effect, Corn (Corn [4]; 2.0 lbs/A): 0
herbicidal effect, Morning glory (Morning glory; 0.25 lbs/A): 8BS
herbicidal effect, Morning glory (Morning glory; 0.5 lbs/A): 9BS
herbicidal effect, Morning glory (Morning glory; 1.0 lbs/A): 10D
herbicidal effect, Morning glory (Morning glory; 2.0 lbs/A): 10D
herbicidal effect, Jimsonweed (Jimsonweed; 0.25 lbs/A): 9BS
herbicidal effect, Jimsonweed (Jimsonweed; 0.5 lbs/A): 9BS
herbicidal effect, Jimsonweed (Jimsonweed; 1.0 lbs/A): 9BS
herbicidal effect, Jimsonweed (Jimsonweed; 2.0 lbs/A): 9BS
herbicidal effect, Johnson Grass (Johnson Grass; 0.25 lbs/A): 3S
herbicidal effect, Johnson Grass (Johnson Grass; 0.5 lbs/A): 0
herbicidal effect, Johnson Grass (Johnson Grass; 1.0 lbs/A): 0
herbicidal effect, Johnson Grass (Johnson Grass; 2.0 lbs/A): 2S
herbicidal effect, Large Crabgrass (Large Crabgrass; 0.25 lbs/A): 0
herbicidal effect, Large Crabgrass (Large Crabgrass; 0.5 lbs/A): 2S
herbicidal effect, Large Crabgrass (Large Crabgrass; 1.0 lbs/A): 5S
herbicidal effect, Large Crabgrass (Large Crabgrass; 2.0 lbs/A): 6BS
herbicidal effect, Velvet leaf (Velvet Leaf [5]; 0.25 lbs/A): 3S
herbicidal effect, Velvet leaf (Velvet Leaf [5]; 0.5 lbs/A): 3S
herbicidal effect, Velvet leaf (Velvet Leaf [5]; 1.0 lbs/A): 7BS
herbicidal effect, Velvet leaf (Velvet Leaf [5]; 2.0 lbs/A): 10D
herbicidal effect, Pigweed (Pigweed [6]; 0.25 lbs/A): 9BS
herbicidal effect, Pigweed (Pigweed [6]; 0.5 lbs/A): 10D
herbicidal effect, Pigweed (Pigweed [6]; 1.0 lbs/A): 10D
herbicidal effect, Pigweed (Pigweed [6]; 2.0 lbs/A): 10D
herbicidal effect, Sorghum (Sorghum; 0.25 lbs/A): 0
herbicidal effect, Sorghum (Sorghum; 0.5 lbs/A): 0
herbicidal effect, Sorghum (Sorghum; 1.0 lbs/A): 1B
herbicidal effect, Sorghum (Sorghum; 2.0 lbs/A): 2B
herbicidal effect, Corn (Corn [7]; 0.25 lbs/A): 0
herbicidal effect, Corn (Corn [7]; 0.5 lbs/A): 0
herbicidal effect, Corn (Corn [7]; 1.0 lbs/A): 0
herbicidal effect, Corn (Corn [7]; 2.0 lbs/A): 0
herbicidal effect, Ragweed (Ragweed; 0.25 lbs/A): 5S
herbicidal effect, Ragweed (Ragweed; 0.5 lbs/A): 7SB
herbicidal effect, Ragweed (Ragweed; 1.0 lbs/A): 8BS
herbicidal effect, Ragweed (Ragweed; 2.0 lbs/A): 10D
herbicidal effect, Rice (Rice; 0.25 lbs/A): 4B
herbicidal effect, Rice (Rice; 0.5 lbs/A): 4B
herbicidal effect, Rice (Rice; 1.0 lbs/A): 7B
herbicidal effect, Rice (Rice; 2.0 lbs/A): 8B
herbicidal effect, Lambs Quarter (Lambs Quarter; 0.25 lbs/A): 9BS
herbicidal effect, Lambs Quarter (Lambs Quarter; 0.5 lbs/A): 9BS
herbicidal effect, Lambs Quarter (Lambs Quarter; 1.0 lbs/A): 9.5BS
herbicidal effect, Lambs Quarter (Lambs Quarter; 2.0 lbs/A): 9.5BS
herbicidal effect, Foxtail Millet (Foxtail Millet; 0.25 lbs/A): 0
herbicidal effect, Foxtail Millet (Foxtail Millet; 0.5 lbs/A): 0
herbicidal effect, Foxtail Millet (Foxtail Millet; 1.0 lbs/A): 4SB
herbicidal effect, Foxtail Millet (Foxtail Millet; 2.0 lbs/A): 5SB

CCc1cccc(CC)c1N(COC)C(=O)CCl [C, 2-chloro-2',6'-diethyl-N-(methoxymethyl)acetanilide]
herbicidal effect, Barnyard Grass (Barnyard Grass; 0.5 lbs/A): 5SR
herbicidal effect, Barnyard Grass (Barnyard Grass; 1.0 lbs/A): 8S
herbicidal effect, Barnyard Grass (Barnyard Grass; 2.0 lbs/A): 8RSF
herbicidal effect, Barnyard Grass (Barnyard Grass; 4.0 lbs/A): 9.5RS
herbicidal effect, Corn (Corn [4]; 0.5 lbs/A): 0
herbicidal effect, Corn (Corn [4]; 1.0 lbs/A): 0
herbicidal effect, Corn (Corn [4]; 2.0 lbs/A): 1SB
herbicidal effect, Corn (Corn [4]; 4.0 lbs/A): 2S
herbicidal effect, Morning glory (Morning glory; 0.5 lbs/A): 0
herbicidal effect, Morning glory (Morning glory; 1.0 lbs/A): 2S
herbicidal effect, Morning glory (Morning glory; 2.0 lbs/A): 2SF
herbicidal effect, Morning glory (Morning glory; 4.0 lbs/A): 3SF
herbicidal effect, Jimsonweed (Jimsonweed; 0.5 lbs/A): 0
herbicidal effect, Jimsonweed (Jimsonweed; 1.0 lbs/A): 3S
herbicidal effect, Jimsonweed (Jimsonweed; 2.0 lbs/A): 4S
herbicidal effect, Jimsonweed (Jimsonweed; 4.0 lbs/A): 5S
herbicidal effect, Johnson Grass (Johnson Grass; 0.5 lbs/A): 9RS
herbicidal effect, Johnson Grass (Johnson Grass; 1.0 lbs/A): 9RS
herbicidal effect, Johnson Grass (Johnson Grass; 2.0 lbs/A): 9.5RS
herbicidal effect, Johnson Grass (Johnson Grass; 4.0 lbs/A): 10N
herbicidal effect, Large Crabgrass (Large Crabgrass; 0.5 lbs/A): 8RS
herbicidal effect, Large Crabgrass (Large Crabgrass; 1.0 lbs/A): 9RS
herbicidal effect, Large Crabgrass (Large Crabgrass; 2.0 lbs/A): 10N
herbicidal effect, Large Crabgrass (Large Crabgrass; 4.0 lbs/A): 10N
herbicidal effect, Velvet leaf (Velvet Leaf [5]; 0.5 lbs/A): 2S
herbicidal effect, Velvet leaf (Velvet Leaf [5]; 1.0 lbs/A): 3S
herbicidal effect, Velvet leaf (Velvet Leaf [5]; 2.0 lbs/A): 6S
herbicidal effect, Velvet leaf (Velvet Leaf [5]; 4.0 lbs/A): 3S
herbicidal effect, Pigweed (Pigweed [6]; 0.5 lbs/A): 7S
herbicidal effect, Pigweed (Pigweed [6]; 1.0 lbs/A): 8SR
herbicidal effect, Pigweed (Pigweed [6]; 2.0 lbs/A): 10N
herbicidal effect, Pigweed (Pigweed [6]; 4.0 lbs/A): 10N
herbicidal effect, Sorghum (Sorghum; 0.5 lbs/A): 3SF
herbicidal effect, Sorghum (Sorghum; 1.0 lbs/A): 4SF
herbicidal effect, Sorghum (Sorghum; 2.0 lbs/A): 8SF
herbicidal effect, Sorghum (Sorghum; 4.0 lbs/A): 8SFR
herbicidal effect, Corn (Corn [7]; 0.5 lbs/A): 0
herbicidal effect, Corn (Corn [7]; 1.0 lbs/A): 0
herbicidal effect, Corn (Corn [7]; 2.0 lbs/A): 2S
herbicidal effect, Corn (Corn [7]; 4.0 lbs/A): 2S
herbicidal effect, Ragweed (Ragweed; 0.5 lbs/A): 0
herbicidal effect, Ragweed (Ragweed; 1.0 lbs/A): 5S
herbicidal effect, Ragweed (Ragweed; 2.0 lbs/A): 7S
herbicidal effect, Ragweed (Ragweed; 4.0 lbs/A): 8SR
herbicidal effect, Rice (Rice; 0.5 lbs/A): 0
herbicidal effect, Rice (Rice; 1.0 lbs/A): 9RS
herbicidal effect, Rice (Rice; 2.0 lbs/A): 10N
herbicidal effect, Rice (Rice; 4.0 lbs/A): 10N
herbicidal effect, Lambs Quarter (Lambs Quarter; 1.0 lbs/A): 5S
herbicidal effect, Lambs Quarter (Lambs Quarter; 2.0 lbs/A): 10N
herbicidal effect, Lambs Quarter (Lambs Quarter; 4.0 lbs/A): 10N
herbicidal effect, Foxtail Millet (Foxtail Millet; 0.5 lbs/A): 9SBR
herbicidal effect, Foxtail Millet (Foxtail Millet; 1.0 lbs/A): 9RSB
herbicidal effect, Foxtail Millet (Foxtail Millet; 2.0 lbs/A): 9.5RSB
herbicidal effect, Foxtail Millet (Foxtail Millet; 4.0 lbs/A): 10D
